Results on 2 compounds are retold here after US20050013856A1, “Solid dispersions comprising a hygroscopic and/or deliquescent drug” (priority 2002, published 2005).

Data set [1] can be described thus: Hygroscopicity / deliquescence of the unformulated drug. In kind it is physicochemical. The text has this: It is particularly surprising that such a hygroscopic and deliquescent drug can be formulated in accordance with the present invention as an acceptably non-hygroscopic composition.
Data set [2] in a line: Solubility of the drug in matrix forming agents HPMC and PEG. In kind it is physicochemical.

“S-[2-[(1-iminoethyl)amino]ethyl]-2-methyl-L-cysteine dihydrochoride [Compound A]”: the Hygroscopicity and deliquescence result in data set [1] is “extremely hygroscopic and deliquescent”. As for `CC(=N)NCCSC[C@](C)(N)C(=O)O` [S-[2-[(1-iminoethyl)amino]ethyl]-2-methyl-L-cysteine], the Hygroscopicity and deliquescence result in data set [1] is “extremely hygroscopic and deliquescent”. The “Solubility in HPMC and PEG” value in data set [2] was “low solubility”.
